Biological target: GSG2 (human) (UniProt Q8TF76)
Test: radiometric filter-binding kinase assay, Kinase HotSpot
Conditions: compound 0.5 µM; ATP 10 µM

| Compound | residual activity [%] |
| --- | --- |
| CCc1nc(-c2ccc(OC)cc2)[nH]c1-c1ccncc1 | 55.9 |
| FC(F)(F)c1ccc(/C=C/c2nc(COc3ccc(CCCCn4ccnn4)cc3)co2)cc1 | 105 |
| CCCCc1c(-c2ccc(O)cc2)[nH]c2nccnc12 | 65.3 |
| Nc1ncnc2c1cnn2-c1ccccc1 | 94.8 |

Biological target: OXSR1 (human) (UniProt O95747)
Test: as above
Conditions: compound 0.5 µM; ATP 10 µM

Sequence of OXSR1 (human) (O95747 whole entry, looked up): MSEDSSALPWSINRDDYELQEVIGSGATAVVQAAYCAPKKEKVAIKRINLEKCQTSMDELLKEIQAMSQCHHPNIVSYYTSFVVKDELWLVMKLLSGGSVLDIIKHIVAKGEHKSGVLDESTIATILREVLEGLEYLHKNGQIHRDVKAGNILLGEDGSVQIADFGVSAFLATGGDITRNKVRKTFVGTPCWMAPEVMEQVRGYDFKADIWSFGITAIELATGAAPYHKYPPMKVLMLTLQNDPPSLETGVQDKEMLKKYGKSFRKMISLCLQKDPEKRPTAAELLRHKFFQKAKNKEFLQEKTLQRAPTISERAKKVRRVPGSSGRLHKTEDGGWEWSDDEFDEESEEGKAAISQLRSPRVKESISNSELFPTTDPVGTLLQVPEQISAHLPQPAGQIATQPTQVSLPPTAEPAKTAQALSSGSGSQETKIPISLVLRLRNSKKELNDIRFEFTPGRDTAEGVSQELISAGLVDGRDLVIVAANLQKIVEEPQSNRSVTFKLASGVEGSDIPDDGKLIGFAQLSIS

| Compound | residual activity [%] |
| --- | --- |
| CCc1nc(-c2ccc(OC)cc2)[nH]c1-c1ccncc1 | 97.7 |
| FC(F)(F)c1ccc(/C=C/c2nc(COc3ccc(CCCCn4ccnn4)cc3)co2)cc1 | 99.7 |
| CCCCc1c(-c2ccc(O)cc2)[nH]c2nccnc12 | 95.5 |
| Nc1ncnc2c1cnn2-c1ccccc1 | 92.6 |

Biological target: LTK (human) (UniProt P29376)
Test: as above
Conditions: compound 0.5 µM; ATP 10 µM

| Compound | residual activity [%] |
| --- | --- |
| CCc1nc(-c2ccc(OC)cc2)[nH]c1-c1ccncc1 | 106 |
| FC(F)(F)c1ccc(/C=C/c2nc(COc3ccc(CCCCn4ccnn4)cc3)co2)cc1 | 104 |
| CCCCc1c(-c2ccc(O)cc2)[nH]c2nccnc12 | 84.1 |
| Nc1ncnc2c1cnn2-c1ccccc1 | 96.8 |

Biological target: EPHB4 (human) (UniProt P54760)
Test: as above
Conditions: compound 0.5 µM; ATP 10 µM

| Compound | residual activity [%] |
| --- | --- |
| CCc1nc(-c2ccc(OC)cc2)[nH]c1-c1ccncc1 | 90.3 |
| FC(F)(F)c1ccc(/C=C/c2nc(COc3ccc(CCCCn4ccnn4)cc3)co2)cc1 | 92.2 |
| CCCCc1c(-c2ccc(O)cc2)[nH]c2nccnc12 | 86 |
| Nc1ncnc2c1cnn2-c1ccccc1 | 103 |

Biological target: NUAK1 (human) (UniProt O60285)
Sequence (O60285 whole entry, looked up): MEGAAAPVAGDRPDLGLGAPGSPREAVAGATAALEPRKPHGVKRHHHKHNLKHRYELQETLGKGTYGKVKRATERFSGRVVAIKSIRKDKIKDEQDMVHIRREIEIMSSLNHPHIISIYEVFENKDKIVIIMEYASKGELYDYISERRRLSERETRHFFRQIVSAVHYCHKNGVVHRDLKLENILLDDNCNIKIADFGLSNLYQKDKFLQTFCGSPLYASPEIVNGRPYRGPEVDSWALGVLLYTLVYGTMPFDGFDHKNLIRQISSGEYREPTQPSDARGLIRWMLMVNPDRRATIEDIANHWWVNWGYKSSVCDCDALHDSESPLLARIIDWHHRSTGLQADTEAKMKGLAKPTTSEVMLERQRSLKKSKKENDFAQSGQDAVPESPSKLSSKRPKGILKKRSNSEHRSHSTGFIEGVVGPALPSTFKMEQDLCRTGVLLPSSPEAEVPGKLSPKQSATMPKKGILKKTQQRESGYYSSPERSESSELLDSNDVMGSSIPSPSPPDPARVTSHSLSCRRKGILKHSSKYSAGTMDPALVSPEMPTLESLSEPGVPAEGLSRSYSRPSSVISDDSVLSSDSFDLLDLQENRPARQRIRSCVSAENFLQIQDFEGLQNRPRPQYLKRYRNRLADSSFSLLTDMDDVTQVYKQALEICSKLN
Test: as above
Conditions: compound 0.5 µM; ATP 10 µM

| Compound | residual activity [%] |
| --- | --- |
| CCc1nc(-c2ccc(OC)cc2)[nH]c1-c1ccncc1 | 92.8 |
| FC(F)(F)c1ccc(/C=C/c2nc(COc3ccc(CCCCn4ccnn4)cc3)co2)cc1 | 103 |
| CCCCc1c(-c2ccc(O)cc2)[nH]c2nccnc12 | 19.1 |
| Nc1ncnc2c1cnn2-c1ccccc1 | 93.2 |

Biological target: CAMK2D (human) (UniProt Q13557)
Test: as above
Conditions: compound 0.5 µM; ATP 10 µM

| Compound | residual activity [%] |
| --- | --- |
| CCc1nc(-c2ccc(OC)cc2)[nH]c1-c1ccncc1 | 96.4 |
| FC(F)(F)c1ccc(/C=C/c2nc(COc3ccc(CCCCn4ccnn4)cc3)co2)cc1 | 109 |
| CCCCc1c(-c2ccc(O)cc2)[nH]c2nccnc12 | 87.3 |
| Nc1ncnc2c1cnn2-c1ccccc1 | 94.7 |

Biological target: FLT1 (human) (UniProt P17948)
Test: as above
Conditions: compound 0.5 µM; ATP 10 µM

| Compound | residual activity [%] |
| --- | --- |
| CCc1nc(-c2ccc(OC)cc2)[nH]c1-c1ccncc1 | 90.2 |
| FC(F)(F)c1ccc(/C=C/c2nc(COc3ccc(CCCCn4ccnn4)cc3)co2)cc1 | 95.5 |
| CCCCc1c(-c2ccc(O)cc2)[nH]c2nccnc12 | 86.3 |
| Nc1ncnc2c1cnn2-c1ccccc1 | 88.5 |

Biological target: TBK1 (human) (UniProt Q9UHD2)
Sequence (Q9UHD2 whole entry, looked up): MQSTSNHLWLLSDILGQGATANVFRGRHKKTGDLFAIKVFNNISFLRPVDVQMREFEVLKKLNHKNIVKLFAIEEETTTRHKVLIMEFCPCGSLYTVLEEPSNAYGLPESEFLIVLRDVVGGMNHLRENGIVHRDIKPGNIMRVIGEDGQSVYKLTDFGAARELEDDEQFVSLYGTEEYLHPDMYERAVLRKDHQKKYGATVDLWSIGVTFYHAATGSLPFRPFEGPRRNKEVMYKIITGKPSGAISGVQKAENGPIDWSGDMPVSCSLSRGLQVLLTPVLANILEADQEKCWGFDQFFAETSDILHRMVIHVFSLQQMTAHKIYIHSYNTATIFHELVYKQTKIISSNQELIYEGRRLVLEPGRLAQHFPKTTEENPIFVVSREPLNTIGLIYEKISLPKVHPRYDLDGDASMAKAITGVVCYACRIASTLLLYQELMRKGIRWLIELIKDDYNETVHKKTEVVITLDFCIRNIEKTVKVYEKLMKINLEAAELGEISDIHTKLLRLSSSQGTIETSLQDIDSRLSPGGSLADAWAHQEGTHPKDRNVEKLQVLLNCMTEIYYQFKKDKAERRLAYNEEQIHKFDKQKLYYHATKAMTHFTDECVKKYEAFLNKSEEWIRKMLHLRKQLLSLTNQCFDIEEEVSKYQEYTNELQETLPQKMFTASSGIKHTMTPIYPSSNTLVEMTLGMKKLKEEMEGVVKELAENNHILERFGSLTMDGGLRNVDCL
Test: as above
Conditions: compound 0.5 µM; ATP 10 µM

| Compound | residual activity [%] |
| --- | --- |
| CCc1nc(-c2ccc(OC)cc2)[nH]c1-c1ccncc1 | 99.7 |
| FC(F)(F)c1ccc(/C=C/c2nc(COc3ccc(CCCCn4ccnn4)cc3)co2)cc1 | 101 |
| CCCCc1c(-c2ccc(O)cc2)[nH]c2nccnc12 | 82.1 |

Biological target: CAMK2A (human) (UniProt Q9UQM7)
Sequence (Q9UQM7 whole entry, looked up): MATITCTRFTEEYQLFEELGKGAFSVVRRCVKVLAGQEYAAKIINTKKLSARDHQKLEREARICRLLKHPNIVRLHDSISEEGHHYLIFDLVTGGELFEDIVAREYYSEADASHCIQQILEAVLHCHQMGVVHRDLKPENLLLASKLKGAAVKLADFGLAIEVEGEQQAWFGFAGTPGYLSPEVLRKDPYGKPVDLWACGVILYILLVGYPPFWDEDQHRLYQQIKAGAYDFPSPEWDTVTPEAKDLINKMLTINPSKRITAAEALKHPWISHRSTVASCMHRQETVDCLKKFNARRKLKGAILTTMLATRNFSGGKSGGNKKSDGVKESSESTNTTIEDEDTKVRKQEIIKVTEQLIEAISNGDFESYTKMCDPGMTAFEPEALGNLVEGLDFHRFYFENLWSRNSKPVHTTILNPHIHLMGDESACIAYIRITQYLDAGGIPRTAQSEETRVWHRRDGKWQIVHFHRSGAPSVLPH
Test: as above
Conditions: compound 0.5 µM; ATP 10 µM

| Compound | residual activity [%] |
| --- | --- |
| CCc1nc(-c2ccc(OC)cc2)[nH]c1-c1ccncc1 | 105 |
| FC(F)(F)c1ccc(/C=C/c2nc(COc3ccc(CCCCn4ccnn4)cc3)co2)cc1 | 101 |
| CCCCc1c(-c2ccc(O)cc2)[nH]c2nccnc12 | 97.8 |
| Nc1ncnc2c1cnn2-c1ccccc1 | 105 |

Biological target: CDK3 CCNE1 (human) (UniProt Q00526+P24864)
Sequence (P24864 whole entry, looked up): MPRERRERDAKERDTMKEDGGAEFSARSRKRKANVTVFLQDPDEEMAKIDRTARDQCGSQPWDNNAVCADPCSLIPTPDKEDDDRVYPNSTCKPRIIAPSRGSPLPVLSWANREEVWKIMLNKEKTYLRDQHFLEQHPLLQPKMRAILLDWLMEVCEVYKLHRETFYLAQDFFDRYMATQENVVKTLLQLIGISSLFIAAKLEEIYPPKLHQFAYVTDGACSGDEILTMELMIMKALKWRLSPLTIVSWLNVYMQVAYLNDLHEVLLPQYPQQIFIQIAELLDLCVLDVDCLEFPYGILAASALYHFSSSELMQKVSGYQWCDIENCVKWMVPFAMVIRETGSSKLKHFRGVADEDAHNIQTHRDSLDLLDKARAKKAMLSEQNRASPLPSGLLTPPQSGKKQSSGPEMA
Sequence (Q00526 whole entry, looked up): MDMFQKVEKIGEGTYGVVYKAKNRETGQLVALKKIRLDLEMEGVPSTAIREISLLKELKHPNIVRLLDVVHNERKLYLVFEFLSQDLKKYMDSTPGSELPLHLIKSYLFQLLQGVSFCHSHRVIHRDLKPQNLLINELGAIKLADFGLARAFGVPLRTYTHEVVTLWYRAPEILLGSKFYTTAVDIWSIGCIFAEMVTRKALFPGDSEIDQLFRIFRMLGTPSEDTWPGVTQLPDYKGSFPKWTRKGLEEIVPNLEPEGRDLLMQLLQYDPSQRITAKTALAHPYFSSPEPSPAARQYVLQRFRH
Test: as above
Conditions: compound 0.5 µM; ATP 10 µM

| Compound | residual activity [%] |
| --- | --- |
| CCc1nc(-c2ccc(OC)cc2)[nH]c1-c1ccncc1 | 97.9 |
| FC(F)(F)c1ccc(/C=C/c2nc(COc3ccc(CCCCn4ccnn4)cc3)co2)cc1 | 91 |
| CCCCc1c(-c2ccc(O)cc2)[nH]c2nccnc12 | 76.8 |
| Nc1ncnc2c1cnn2-c1ccccc1 | 96.2 |

Biological target: MAPK10 (human) (UniProt P53779)
Sequence (P53779 whole entry, looked up): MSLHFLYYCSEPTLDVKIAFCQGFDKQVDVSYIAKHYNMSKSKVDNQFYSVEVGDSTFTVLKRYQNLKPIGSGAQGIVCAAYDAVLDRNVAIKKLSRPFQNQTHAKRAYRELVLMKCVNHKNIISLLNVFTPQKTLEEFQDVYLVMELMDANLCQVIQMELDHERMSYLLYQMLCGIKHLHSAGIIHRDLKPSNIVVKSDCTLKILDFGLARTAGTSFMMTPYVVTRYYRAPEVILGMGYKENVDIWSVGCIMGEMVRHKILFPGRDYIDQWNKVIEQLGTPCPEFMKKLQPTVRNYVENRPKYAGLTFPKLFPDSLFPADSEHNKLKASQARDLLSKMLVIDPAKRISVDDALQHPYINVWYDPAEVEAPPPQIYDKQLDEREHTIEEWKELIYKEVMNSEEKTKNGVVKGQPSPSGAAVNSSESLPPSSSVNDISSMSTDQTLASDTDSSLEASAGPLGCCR
Test: as above
Conditions: compound 0.5 µM; ATP 10 µM

| Compound | residual activity [%] |
| --- | --- |
| CCc1nc(-c2ccc(OC)cc2)[nH]c1-c1ccncc1 | 100 |
| FC(F)(F)c1ccc(/C=C/c2nc(COc3ccc(CCCCn4ccnn4)cc3)co2)cc1 | 94.6 |
| CCCCc1c(-c2ccc(O)cc2)[nH]c2nccnc12 | 100 |
| Nc1ncnc2c1cnn2-c1ccccc1 | 100 |

Biological target: BRSK2 (human) (UniProt Q8IWQ3)
Test: as above
Conditions: compound 0.5 µM; ATP 10 µM

| Compound | residual activity [%] |
| --- | --- |
| CCc1nc(-c2ccc(OC)cc2)[nH]c1-c1ccncc1 | 105 |
| FC(F)(F)c1ccc(/C=C/c2nc(COc3ccc(CCCCn4ccnn4)cc3)co2)cc1 | 99.6 |
| CCCCc1c(-c2ccc(O)cc2)[nH]c2nccnc12 | 87.2 |
| Nc1ncnc2c1cnn2-c1ccccc1 | 95.3 |

Biological target: MAP3K10 (human) (UniProt Q02779)
Test: as above
Conditions: compound 0.5 µM; ATP 10 µM

| Compound | residual activity [%] |
| --- | --- |
| CCc1nc(-c2ccc(OC)cc2)[nH]c1-c1ccncc1 | 102 |
| FC(F)(F)c1ccc(/C=C/c2nc(COc3ccc(CCCCn4ccnn4)cc3)co2)cc1 | 98.9 |
| CCCCc1c(-c2ccc(O)cc2)[nH]c2nccnc12 | 74.3 |
| Nc1ncnc2c1cnn2-c1ccccc1 | 88.6 |

Biological target: PRKCH (human) (UniProt P24723)
Sequence (P24723 whole entry, looked up): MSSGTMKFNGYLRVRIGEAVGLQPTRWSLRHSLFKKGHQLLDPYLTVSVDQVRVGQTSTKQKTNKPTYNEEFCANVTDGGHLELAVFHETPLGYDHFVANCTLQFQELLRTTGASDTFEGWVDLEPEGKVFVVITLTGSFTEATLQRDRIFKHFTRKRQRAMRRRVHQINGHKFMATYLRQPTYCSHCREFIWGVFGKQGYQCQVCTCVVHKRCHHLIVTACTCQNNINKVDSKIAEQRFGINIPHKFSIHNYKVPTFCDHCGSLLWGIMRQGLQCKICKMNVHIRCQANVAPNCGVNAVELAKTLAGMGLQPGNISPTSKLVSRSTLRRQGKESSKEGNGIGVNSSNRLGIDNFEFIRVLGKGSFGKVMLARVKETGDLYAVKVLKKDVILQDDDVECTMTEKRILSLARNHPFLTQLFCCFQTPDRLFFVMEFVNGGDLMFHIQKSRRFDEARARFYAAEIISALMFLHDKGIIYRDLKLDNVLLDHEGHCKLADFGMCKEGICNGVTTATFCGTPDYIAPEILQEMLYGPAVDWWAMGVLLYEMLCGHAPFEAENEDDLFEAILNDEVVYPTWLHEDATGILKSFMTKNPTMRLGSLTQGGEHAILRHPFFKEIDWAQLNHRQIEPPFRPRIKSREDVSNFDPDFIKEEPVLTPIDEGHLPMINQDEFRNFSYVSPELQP
Test: as above
Conditions: compound 0.5 µM; ATP 10 µM

| Compound | residual activity [%] |
| --- | --- |
| CCc1nc(-c2ccc(OC)cc2)[nH]c1-c1ccncc1 | 93 |
| FC(F)(F)c1ccc(/C=C/c2nc(COc3ccc(CCCCn4ccnn4)cc3)co2)cc1 | 87.6 |
| CCCCc1c(-c2ccc(O)cc2)[nH]c2nccnc12 | 90.5 |
| Nc1ncnc2c1cnn2-c1ccccc1 | 94.8 |

Biological target: JAK1 JH1 catalytic (human) (UniProt P23458)
Test: as above
Conditions: compound 0.5 µM; ATP 10 µM

| Compound | residual activity [%] |
| --- | --- |
| CCc1nc(-c2ccc(OC)cc2)[nH]c1-c1ccncc1 | 110 |
| FC(F)(F)c1ccc(/C=C/c2nc(COc3ccc(CCCCn4ccnn4)cc3)co2)cc1 | 103 |
| CCCCc1c(-c2ccc(O)cc2)[nH]c2nccnc12 | 53.8 |
| Nc1ncnc2c1cnn2-c1ccccc1 | 98.1 |

Biological target: MARK1 (human) (UniProt Q9P0L2)
Test: as above
Conditions: compound 0.5 µM; ATP 10 µM

| Compound | residual activity [%] |
| --- | --- |
| CCc1nc(-c2ccc(OC)cc2)[nH]c1-c1ccncc1 | 99.2 |
| FC(F)(F)c1ccc(/C=C/c2nc(COc3ccc(CCCCn4ccnn4)cc3)co2)cc1 | 102 |
| CCCCc1c(-c2ccc(O)cc2)[nH]c2nccnc12 | 91.9 |
| Nc1ncnc2c1cnn2-c1ccccc1 | 94.8 |

Biological target: CAMK2B (human) (UniProt Q13554)
Test: as above
Conditions: compound 0.5 µM; ATP 10 µM

| Compound | residual activity [%] |
| --- | --- |
| CCc1nc(-c2ccc(OC)cc2)[nH]c1-c1ccncc1 | 97.1 |
| FC(F)(F)c1ccc(/C=C/c2nc(COc3ccc(CCCCn4ccnn4)cc3)co2)cc1 | 99.3 |
| CCCCc1c(-c2ccc(O)cc2)[nH]c2nccnc12 | 97 |
| Nc1ncnc2c1cnn2-c1ccccc1 | 97.8 |

Biological target: TEK (human) (UniProt Q02763)
Test: as above
Conditions: compound 0.5 µM; ATP 10 µM

| Compound | residual activity [%] |
| --- | --- |
| CCc1nc(-c2ccc(OC)cc2)[nH]c1-c1ccncc1 | 99.1 |
| FC(F)(F)c1ccc(/C=C/c2nc(COc3ccc(CCCCn4ccnn4)cc3)co2)cc1 | 95.8 |
| CCCCc1c(-c2ccc(O)cc2)[nH]c2nccnc12 | 97 |
| Nc1ncnc2c1cnn2-c1ccccc1 | 92.2 |

Biological target: STK4 (human) (UniProt Q13043)
Sequence (Q13043 whole entry, looked up): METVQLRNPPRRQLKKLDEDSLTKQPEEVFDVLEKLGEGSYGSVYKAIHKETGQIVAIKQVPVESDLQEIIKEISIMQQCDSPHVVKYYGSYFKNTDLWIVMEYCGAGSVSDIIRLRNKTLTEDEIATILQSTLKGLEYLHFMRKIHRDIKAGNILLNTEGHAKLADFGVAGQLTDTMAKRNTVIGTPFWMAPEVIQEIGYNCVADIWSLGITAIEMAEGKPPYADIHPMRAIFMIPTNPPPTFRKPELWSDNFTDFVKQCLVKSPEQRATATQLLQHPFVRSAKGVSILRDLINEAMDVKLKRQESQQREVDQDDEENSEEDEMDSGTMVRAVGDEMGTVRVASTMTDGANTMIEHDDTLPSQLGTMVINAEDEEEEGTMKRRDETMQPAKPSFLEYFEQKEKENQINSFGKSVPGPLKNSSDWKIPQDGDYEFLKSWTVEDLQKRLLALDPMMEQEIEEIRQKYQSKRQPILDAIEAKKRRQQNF
Test: as above
Conditions: compound 0.5 µM; ATP 10 µM

| Compound | residual activity [%] |
| --- | --- |
| CCc1nc(-c2ccc(OC)cc2)[nH]c1-c1ccncc1 | 106 |
| FC(F)(F)c1ccc(/C=C/c2nc(COc3ccc(CCCCn4ccnn4)cc3)co2)cc1 | 97.5 |
| CCCCc1c(-c2ccc(O)cc2)[nH]c2nccnc12 | 78.3 |
| Nc1ncnc2c1cnn2-c1ccccc1 | 96.8 |

Biological target: TAOK2 (human) (UniProt Q9UL54)
Test: as above
Conditions: compound 0.5 µM; ATP 10 µM

| Compound | residual activity [%] |
| --- | --- |
| CCc1nc(-c2ccc(OC)cc2)[nH]c1-c1ccncc1 | 98.2 |
| FC(F)(F)c1ccc(/C=C/c2nc(COc3ccc(CCCCn4ccnn4)cc3)co2)cc1 | 105 |
| CCCCc1c(-c2ccc(O)cc2)[nH]c2nccnc12 | 62.7 |
| Nc1ncnc2c1cnn2-c1ccccc1 | 93 |

Biological target: NEK4 (human) (UniProt P51957)
Test: as above
Conditions: compound 0.5 µM; ATP 10 µM

| Compound | residual activity [%] |
| --- | --- |
| CCc1nc(-c2ccc(OC)cc2)[nH]c1-c1ccncc1 | 95.2 |
| FC(F)(F)c1ccc(/C=C/c2nc(COc3ccc(CCCCn4ccnn4)cc3)co2)cc1 | 90 |
| CCCCc1c(-c2ccc(O)cc2)[nH]c2nccnc12 | 82.2 |
| Nc1ncnc2c1cnn2-c1ccccc1 | 98.7 |
